# Assay results taken from patent US20090270450A1, “CHEMICAL COMPOUNDS” (ASTRAZENECA AB, priority 2006, published 2009).
# Target: T1, His-tagged kinase domain of CSF-1R (amino acids 568-912) (Homo sapiens, UniProt P07333)
# T1 construct: The His-tagged kinase domain of CSF-1R (i.e., amino acids 568-912, GeneBank ID NM_005211); His; made in house; host or cells: baculovirus infected SF+Express insect cells
# T1 sequence (P07333 568-912): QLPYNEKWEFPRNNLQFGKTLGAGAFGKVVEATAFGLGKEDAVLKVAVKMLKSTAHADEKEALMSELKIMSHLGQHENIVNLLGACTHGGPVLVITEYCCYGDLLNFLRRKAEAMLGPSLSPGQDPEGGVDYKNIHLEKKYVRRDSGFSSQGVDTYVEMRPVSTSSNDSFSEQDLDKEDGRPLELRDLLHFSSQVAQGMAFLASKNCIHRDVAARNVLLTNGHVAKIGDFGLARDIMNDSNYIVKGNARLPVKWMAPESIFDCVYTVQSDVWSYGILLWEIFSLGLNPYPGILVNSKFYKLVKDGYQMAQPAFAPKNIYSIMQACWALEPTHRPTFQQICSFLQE
# Assay: Assay 1: CSF-1R in vitro AlphaScreen assay
# Assay type: biochemical
# Details: phosphorylation of biotinylated pEY substrate; 0.57 nM CSF-1R, 90 μM ATP
# Procedure: Assay 1: CSF-1R in Vitro AlphaScreen Assay
# Activity of purified CSF-1R was determined in vitro using an Amplified Luminescent Proximity Homogeneous Assay (ALPHA)(Perkin Elmer), which measures phosphorylation of the CSF-1R substrate, biotinylated poly-glutamine-tyrosine peptide (PEY-HTRF CisBio 61GT0BLD), as described below. The His-tagged kinase domain of CSF-1R (i.e., amino acids 568-912, GeneBank ID NM_005211; (see page 25 lines 13-19 of WO 2006/067445 for the sequence listing)) was purified from baculovirus infected SF+Express insect cells (1.4×10^6 cells/ml), French pressed and chromatographed through subsequent Qiagen Ni-NTA, Superflow Mono Q HR 10/10, and Superdex 200 SEC columns. Typical yield was 245 μg/l of cell pellet at >95% purity.
# The phosphorylation of the CSF-1R substrate in the presence and absence of the compound of interest was determined. Briefly, 0.57 nM of purified CSF-1R, 5 nM pEY substrate, and compound were preincubated in 1× buffer for 30 minutes at 25° C. Reactions were initiated with addition of 90 μM adenosine triphosphate (ATP) in 1× buffer and incubated at 25° C. for 60 minutes and reactions stopped by addition of 5 μl of detection mix consisting of 136 mM NaCl, 102 mM ethylenediamine tetraacetic acid, 1.65 mg/ml BSA, 40 ug/ml Streptavidin donor beads (Perkin Elmer 6760002), 40 ug/ml pTyr100 acceptor beads (Perkin Elmer 6760620). Plates were incubated at 25° C. for 18 hours in the dark. Phosphorylated substrate was detected by an EnVision plate reader (Perkin Elmer) 680 nm excitation, 520-620 nm emission. Data was graphed and IC50s calculated using Excel Fit (Microsoft).
row,IC50,Compound
1,2 nM,"COc1cc2ncc(C(N)=O)c(Nc3ccc(Cl)c(Cl)c3)c2cc1CCCN [Example 1, 6-(3-Aminopropyl)-4-[(3,4-dichlorophenyl)amino]-7-methoxyquinoline-3-carboxamide]"
2,5 nM,"CCOc1cc2ncc(C(N)=O)c(Nc3cccc(Cl)c3F)c2cc1CCCO [Example 3, 4-[(3-Chloro-2-fluorophenyl)amino]-7-ethoxy-6-(3-hydroxypropyl)quinoline-3-carboxamide]"
3,20 nM,"COc1cc2ncc(C(N)=O)c(Nc3ccc(F)cc3F)c2cc1CCCN1CCCCC1 [Example 8, 4-[(2,4-Difluorophenyl)amino]-7-methoxy-6-(3-piperidin-1-ylpropyl)quinoline-3-carboxamide]"
4,3 nM,"COc1cc2ncc(C(N)=O)c(Nc3ccc(F)cc3F)c2cc1CCCN(C)C [Example 9, 4-[(2,4-Difluorophenyl)amino]-6-[3-(dimethylamino)propyl]-7-methoxyquinoline-3-carboxamide]"
5,23 nM,"COc1cc2ncc(C(N)=O)c(Nc3ccc(F)cc3F)c2cc1CCCNC1CC1 [Example 10, 6-[3-(Cyclopropylamino)propyl]-4-[(2,4-difluorophenyl)amino]-7-methoxyquinoline-3-carboxamide]"
6,4 nM,"COc1cc2ncc(C(N)=O)c(Nc3ccc(Cl)c(Cl)c3)c2cc1CCCNC1CC1 [Example 11, 6-[3-(Cyclopropylamino)propyl]-4-[(3,4-dichlorophenyl)amino]-7-methoxyquinoline-3-carboxamide]"
7,4 nM,"COc1cc2ncc(C(N)=O)c(Nc3ccc(Cl)c(Cl)c3)c2cc1CCCN1CCCCC1 [Example 12, 4-[(3,4-Dichlorophenyl)amino]-7-methoxy-6-(3-piperidin-1-ylpropyl)quinoline-3-carboxamide]"
8,1 nM,"COc1cc2ncc(C(N)=O)c(Nc3ccc(Cl)c(Cl)c3)c2cc1CCCN(C)C [Example 13, 4-[(3,4-Dichlorophenyl)amino]-6-[3-(dimethylamino)propyl]-7-methoxyquinoline-3-carboxamide]"
9,8 nM,"COc1cc2ncc(C(N)=O)c(Nc3ccc(F)cc3F)c2cc1CCCO [Example 14, 4-[(2,4-Difluorophenyl)amino]-6-(3-hydroxypropyl)-7-methoxyquinoline-3-carboxamide]"
10,2 nM,"COc1cc2ncc(C(N)=O)c(Nc3ccc(Cl)c(Cl)c3)c2cc1CCCO [Example 15, 4-[(3,4-Dichlorophenyl)amino]-6-(3-hydroxypropyl)-7-methoxyquinoline-3-carboxamide]"
11,5 nM,"CCOc1cc2ncc(C(N)=O)c(Nc3ccc(F)cc3F)c2cc1CCCO [Example 16, 4-[(2,4-Difluorophenyl)amino]-7-ethoxy-6-(3-hydroxypropyl)quinoline-3-carboxamide]"
12,9 nM,"COc1cc2ncc(C(N)=O)c(Nc3ccc(F)c(Cl)c3)c2cc1CCCO [Example 17, 4-[(3-Chloro-4-fluorophenyl)amino]-6-(3-hydroxypropyl)-7-methoxyquinoline-3-carboxamide]"
13,< 3 nM,"COc1cc2ncc(C(N)=O)c(Nc3cccc(Cl)c3F)c2cc1CCCO [Example 18, 4-[(3-Chloro-2-fluorophenyl)amino]-6-(3-hydroxypropyl)-7-methoxyquinoline-3-carboxamide]"
14,8 nM,"COc1cc2ncc(C(N)=O)c(Nc3cccc(Cl)c3Cl)c2cc1CCCO [Example 19, 4-[(2,3-Dichlorophenyl)amino]-6-(3-hydroxypropyl)-7-methoxyquinoline-3-carboxamide]"
15,38 nM,"CCc1ccc(Nc2c(C(N)=O)cnc3cc(OC)c(CCCO)cc23)cc1 [Example 20, 4-[(4-Ethylphenyl)amino]-6-(3-hydroxypropyl)-7-methoxyquinoline-3-carboxamide]"
16,18 nM,"CCc1ccc(Nc2c(C(N)=O)cnc3cc(OC)c(C#CCO)cc23)cc1 [Example 21, 4-[(4-Ethylphenyl)amino]-6-(3-hydroxyprop-1-yn-1-yl)-7-methoxyquinoline-3-carboxamide]"
17,33 nM,"CCOc1cc2ncc(C(N)=O)c(Nc3ccc(CC)cc3)c2cc1CCCO [Example 22, 7-Ethoxy-4-[(4-ethylphenyl)amino]-6-(3-hydroxypropyl)quinoline-3-carboxamide]"

row,IC50,Compound
1,22 nM,"CCOc1cc2ncc(C(N)=O)c(Nc3ccc(Cl)c(Cl)c3)c2cc1CCCO [Example 23, 4-[(3,4-Dichlorophenyl)amino]-7-ethoxy-6-(3-hydroxypropyl)quinoline-3-carboxamide]"
2,26 nM,"CCOc1cc2ncc(C(N)=O)c(Nc3cccc(Cl)c3Cl)c2cc1CCCO [Example 24, 4-[(2,3-Dichlorophenyl)amino]-7-ethoxy-6-(3-hydroxypropyl)quinoline-3-carboxamide]"
3,7 nM,"CCOc1cc2ncc(C(N)=O)c(Nc3ccc(F)c(Cl)c3)c2cc1CCCO [Example 25, 4-[(3-Chloro-4-fluorophenyl)amino]-7-ethoxy-6-(3-hydroxypropyl)quinoline-3-carboxamide]"
4,140 nM,"COc1cc2ncc(C(N)=O)c(Nc3ccc(Cl)c(Cl)c3)c2cc1C1CC1 [Example 26, 6-Cyclopropyl-4-[(3,4-dichlorophenyl)amino]-7-methoxyquinoline-3-carboxamide]"
5,65 nM,"COc1cc2ncc(C(N)=O)c(Nc3ccc(F)cc3F)c2cc1C1CC1 [Example 27, 6-Cyclopropyl-4-[(2,4-difluorophenyl)amino]-7-methoxyquinoline-3-carboxamide]"
6,14 nM,"COc1cc2c(Nc3ccc(F)cc3F)c(C(N)=O)cnc2cc1C1CC1 [Example 28, 7-Cyclopropyl-4-[(2,4-difluorophenyl)amino]-6-methoxyquinoline-3-carboxamide]"
7,57 nM,"COc1cc2c(Nc3ccc(Cl)c(Cl)c3)c(C(N)=O)cnc2cc1C1CC1 [Example 29, 7-Cyclopropyl-4-[(3,4-dichlorophenyl)amino]-6-methoxyquinoline-3-carboxamide]"
8,76 nM,"CCOc1cc2ncc(C(N)=O)c(Nc3ccc(F)cc3F)c2cc1-c1ccc(OC)nc1 [Example 30, 4-[(2,4-Difluorophenyl)amino]-7-ethoxy-6-(6-methoxypyridin-3-yl)quinoline-3-carboxamide]"
9,43 nM,"CCOc1cc2ncc(C(N)=O)c(Nc3ccc(F)cc3F)c2cc1-c1cccnc1 [Example 31, 4-[(2,4-Difluorophenyl)amino]-7-ethoxy-6-pyridin-3-ylquinoline-3-carboxamide]"
10,35 nM,"CCOc1cc2ncc(C(N)=O)c(Nc3ccc(F)cc3F)c2cc1-c1c(C)noc1C [Example 32, 4-[(2,4-Difluorophenyl)amino]-6-(3,5-dimethylisoxazol-4-yl)-7-ethoxyquinoline-3-carboxamide]"
11,96 nM,"CCOc1cc2ncc(C(N)=O)c(Nc3ccc(F)cc3F)c2cc1-c1ccc[nH]1 [Example 33, 4-[(2,4-Difluorophenyl)amino]-7-ethoxy-6-(1H-pyrrol-2-yl)quinoline-3-carboxamide]"
12,25 nM,"CCOc1cc2ncc(C(N)=O)c(Nc3ccc(F)cc3F)c2cc1-c1cncnc1 [Example 34, 4-[(2,4-Difluorophenyl)amino]-7-ethoxy-6-pyrimidin-5-ylquinoline-3-carboxamide]"
13,61 nM,"CCOc1cc2ncc(C(N)=O)c(Nc3ccc(F)cc3F)c2cc1-c1ccncc1 [Example 35, 4-[(2,4-Difluorophenyl)amino]-7-ethoxy-6-pyridin-4-ylquinoline-3-carboxamide]"
14,28 nM,"CCOc1cc2ncc(C(N)=O)c(Nc3ccc(F)cc3F)c2cc1-c1cn[nH]c1 [Example 36, 4-[(2,4-Difluorophenyl)amino]-7-ethoxy-6-(1H-pyrazol-4-yl)quinoline-3-carboxamide]"
15,440 nM,"CCOc1cc2ncc(C(N)=O)c(Nc3ccc(F)cc3F)c2cc1-c1cnn(CC(C)C)c1 [Example 37, 4-[(2,4-Difluorophenyl)amino]-7-ethoxy-6-(1-isobutyl-1H-pyrazol-4-yl)quinoline-3-carboxamide]"
16,660 nM,"CCOc1cc2ncc(C(N)=O)c(Nc3ccc(F)cc3F)c2cc1C1=CCN(C(=O)OC(C)(C)C)CC1 [Example 38, tert-Butyl 4-{3-(aminocarbonyl)-4-[(2,4-difluorophenyl)amino]-7-ethoxyquinolin-6-yl}-3,6-dihydropyridine-1(2H)-carboxylate]"
